How the values were obtained:
Type in all cases: cell-based
[1] = system: human kidney proximal tubule epithelial cell (HK-2) cell line; test: Antioxidant effect, intracellular reactive oxygen species (DCF-DA) in HK-2 kidney cells after H2O2; settings: 1 µM for 18 hours, then 500 µM H2O2 for 6 hours, FIG. 6
Method: First, the antioxidant effect was checked using kidney cells. More specifically, a human kidney proximal tubule epithelial cell (HK-2) cell line was treated with 1 µM DMC derivative and cultured for 18 hours. Then, 500 µM H2O2 was added to the culture medium and the culture medium was incubated for 6 hours. Thereafter, the amount of intracellular reactive oxygen species (iROS) was measured using dichlorohydro-fluorescein diacetate (DCF-DA).

[2] = system: rat aortic smooth muscle cells; test: PDGF-induced migration of vascular smooth muscle cells; settings: 1 µM with 10 ng/mL PDGF; FIG. 4
Method: Proliferation and migration of vascular smooth muscle cells are known to be essential steps in the progression of vascular diseases such as restenosis and arteriosclerosis. Therefore, in order to confirm the effect of the DMC derivatives of Example 1 on the migration of rat aortic smooth muscle cells, smooth muscle cells were treated with 10 ng/mL platelet-derived growth factor (PDGF) and 1 µM DMC derivative and cultured. Then, the degree of cell migration was measured.

[3] = system: vascular endothelial cells (HUVECs) and THP-1 (human monocyte) immune cells; test: Binding of THP-1 immune cells to TNFα-treated vascular endothelial cells (HUVECs); settings: 10 µM with 10 ng/mL TNFα, 24 hours, then THP-1 for 1 hour; FIG. 5
Method: In the early stages of progression of vascular diseases such as arteriosclerosis, adhesion materials are expressed in vascular endothelial cells due to various environmental factors, thereby increasing the binding of immune cells. Therefore, in order to check whether the DMC derivatives of Example 1 affect the binding between vascular endothelial cells and immune cells, vascular endothelial cells (HUVECs) were treated with 10 ng/mL TNFα and 10 µM DMC derivative and cultured for 24 hours. Then, THP-1 (human monocyte) immune cells labeled with a fluorescent protein were added to the culture solution, and the cells were additionally cultured for 1 hour. After the culture was completed, unbound immune cells were removed using a phosphate buffer solution, and then the degree of binding of immune cells to vascular endothelial cells was determined by measuring the intensity of fluorescence.

AMPK = AMPK activity, western blotting of phosphorylated AMPK in C2C12 myotubes; settings: 10 µM, 24 hours, FIG. 2
Source text: AMP-activated protein kinase (AMPK) is a member of serine/threonine kinases, and is an enzyme known as an energy sensor which senses the intracellular energy state. Moreover, the activation of AMPK is known to show the effect of increasing glucose transport and promoting fatty acid oxidation in skeletal muscle, and to […] the synthesis of cholesterol and triglycerides, decrease lipogenesis, and increase fatty acid oxidation, and ketogenesis, and the like in the liver. Further, the activation of AMPK is known to reduce adipogenesis in adipose tissue and increase insulin secretion in pancreatic beta cells, thereby being able to be applied to the treatment of various metabolic diseases. Therefore, western blotting was performed in order to confirm the effect of the DMC derivatives of Example 1 on AMPK activity. More specifically, the C2C12 myoblasts were primarily cultured in DMEM supplemented with 10% fetal bovine serum, and then cultured in DMEM supplemented with 2% horse serum for 5 days to differentiate into myotubes. Then, the differentiated myotubes were treated with 10 µM DMC derivative and cultured for 24 hours, and then cells were collected, and disrupted using an ultrasonic disperser to obtain proteins. Next, western blotting was performed using a pAMPK antibody (Cell Signaling Technology) and an AMPK antibody (Cell Signaling Technology) to measure the amount of phosphorylated AMPK. 1 mM AICAR was used as a positive control, and 20 µg of protein was used for each sample in western blotting.

| SMILES | amount of intracellular reactive oxygen species (ROS) [1] | migration of vascular smooth muscle cells [2] | binding of immune cells to vascular endothelial cells (fluorescence) [3] | activity of AMPK (phosphorylated AMPK) (AMPK) |
| --- | --- | --- | --- | --- |
| COc1c(C)c(O)c(C)c(O)c1C(=O)/C=C/c1ccc(C)cc1 [Chemical Formula 3, 1-(2′,4′-dihydroxy-6′-methoxy-3′,5′-dimethylphenyl)-3-(4-tolyl)-2-propen-1-one] | effectively reduced ROS | similarly or more effectively suppressed cell migration by PDGF than AICAR and Rosi, which were used as positive controls, and DMC | similarly or more effectively suppressed the binding of immune cells than Rosi | increased the activity of AMPK similarly to or more effectively than the positive controls |
| COCOc1c(C)c(O)c(C(=O)/C=C/c2cc(OC)ccc2OC)c(OC)c1C [Chemical Formula 15, 1-(2′-hydroxy-4′-(methoxymethoxy)-6′-methoxy-3′,5′-dimethylphenyl)-3-(2,5-dimethoxyphenyl)-2-propen-1-one] | effectively reduced ROS | similarly or more effectively suppressed cell migration by PDGF than AICAR and Rosi, which were used as positive controls, and DMC | similarly or more effectively suppressed the binding of immune cells than Rosi | increased the activity of AMPK similarly to or more effectively than the positive controls |
| COc1c(C)c(OC)c(C(=O)/C=C/c2ccc(N(C)C)cc2)c(OC)c1C [Chemical Formula 23, 1-(3′,5′-dimethyl-2′,4′,6′-trimethoxyphenyl)-3-(4-(N,N-dimethylamino)phenyl)-2-propen-1-one] | effectively reduced ROS | similarly or more effectively suppressed cell migration by PDGF than AICAR and Rosi, which were used as positive controls, and DMC | similarly or more effectively suppressed the binding of immune cells than Rosi | increased the activity of AMPK similarly to or more effectively than the positive controls |
| COCOc1c(C)c(O)c(C(=O)/C=C/c2ccc(F)cc2)c(OC)c1C [Chemical Formula 24, 1-(2′-hydroxy-4′-(methoxymethoxy)-6′-methoxy-3′,5′-dimethylphenyl)-3-(4-fluorophenyl)-2-propen-1-one] | effectively reduced ROS | similarly or more effectively suppressed cell migration by PDGF than AICAR and Rosi, which were used as positive controls, and DMC | similarly or more effectively suppressed the binding of immune cells than Rosi | increased the activity of AMPK similarly to or more effectively than the positive controls |
| COCOc1c(C)c(O)c(C(=O)/C=C/c2ccccc2)c(OC)c1C [Chemical Formula 25, 1-(2′-hydroxy-4′-(methoxymethoxy)-6′-methoxy-3′,5′-dimethylphenyl)-3-phenyl-2-propen-1-one] | effectively reduced ROS | similarly or more effectively suppressed cell migration by PDGF than AICAR and Rosi, which were used as positive controls, and DMC | similarly or more effectively suppressed the binding of immune cells than Rosi | increased the activity of AMPK similarly to or more effectively than the positive controls |
| CCOc1ccc(/C=C/C(=O)c2c(O)c(C)c(O)c(C)c2OC)cc1F [Chemical Formula 33, 1-(2′,4′-dihydroxy-6′-methoxy-3′,5′-dimethylphenyl)-3-(4-ethoxy-3-fluorophenyl)-2-propen-1-one] | effectively reduced ROS | similarly or more effectively suppressed cell migration by PDGF than AICAR and Rosi, which were used as positive controls, and DMC | similarly or more effectively suppressed the binding of immune cells than Rosi | – |

From patent US20230248665A1, “COMPOSITION COMPRISING DIMETHYLCHALCONE DERIVATIVE FOR PREVENTION OR TREATMENT OF METABOLIC DISEASE” (SEOUL NATIONAL UNIVERSITY R & DB FOUNDATION, priority 2020, published 2023)
